The source made the active and inactive calls.
How the values were obtained:
[1] = biological target: T1, Cannabinoid receptor 1 (Homo sapiens, UniProt P21554); assay: SAR analysis of antagonists of the Cannabinoid Receptor 1 using an Image-Based Assay - Set 4. [Related pubchem assays (depositor defined):AID2013, AID2026]; assay type: functional
[2] = biological target: T2, G-protein coupled receptor 35 (Homo sapiens, UniProt Q9HC97); assay: SAR analysis of Antagonists of the GPR35 Receptor using an Image-Based Assay - Set 6. [Related pubchem assays (depositor defined):AID2013, AID2026]; assay type: functional
T2 sequence (Q9HC97 whole entry): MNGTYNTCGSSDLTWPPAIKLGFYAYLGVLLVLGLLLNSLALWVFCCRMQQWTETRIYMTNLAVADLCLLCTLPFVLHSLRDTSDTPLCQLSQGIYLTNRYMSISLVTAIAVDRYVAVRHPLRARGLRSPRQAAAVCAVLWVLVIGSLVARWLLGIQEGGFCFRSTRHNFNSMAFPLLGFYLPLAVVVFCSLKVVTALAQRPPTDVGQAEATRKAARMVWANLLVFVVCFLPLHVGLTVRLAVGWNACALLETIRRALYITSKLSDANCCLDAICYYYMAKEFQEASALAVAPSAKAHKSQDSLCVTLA

[3] = biological target: G-protein coupled receptor 55 (Homo sapiens, UniProt Q9Y2T6); assay: SAR Analysis of Selective Antagonists of GPR55 using an Image-Based Assay - Set 4. [Related pubchem assays (depositor defined):AID2013, AID2026]; assay type: functional;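 further: antagonism of response to 5 µM lysophosphatidylinositol agonist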
Sequence of G-protein coupled receptor 55 (Q9Y2T6 whole entry): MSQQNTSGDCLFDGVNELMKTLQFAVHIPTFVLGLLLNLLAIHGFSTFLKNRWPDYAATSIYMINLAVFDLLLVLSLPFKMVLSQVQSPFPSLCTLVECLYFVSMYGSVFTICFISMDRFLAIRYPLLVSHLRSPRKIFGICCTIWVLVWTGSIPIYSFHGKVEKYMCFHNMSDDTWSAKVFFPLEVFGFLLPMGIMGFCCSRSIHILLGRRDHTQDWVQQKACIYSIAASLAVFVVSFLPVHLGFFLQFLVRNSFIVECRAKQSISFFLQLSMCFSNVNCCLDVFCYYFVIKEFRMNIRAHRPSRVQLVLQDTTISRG

[4] = biological target: T1, Cannabinoid receptor 1; assay: SAR analysis of agonists of the Cannabinoid Receptor 1 using an Image-Based Assay - Set 4. [Related pubchem assays (depositor defined):AID2013, AID2026]; assay type: functional
[5] = biological target: T3, Cannabinoid receptor 2 (Homo sapiens, UniProt P34972); assay: SAR analysis of antagonists of the Cannabinoid Receptor 2 using an Image-Based Assay - Set 3. [Related pubchem assays (depositor defined):AID2013, AID2026]; assay type: functional
T3 sequence (P34972 whole entry): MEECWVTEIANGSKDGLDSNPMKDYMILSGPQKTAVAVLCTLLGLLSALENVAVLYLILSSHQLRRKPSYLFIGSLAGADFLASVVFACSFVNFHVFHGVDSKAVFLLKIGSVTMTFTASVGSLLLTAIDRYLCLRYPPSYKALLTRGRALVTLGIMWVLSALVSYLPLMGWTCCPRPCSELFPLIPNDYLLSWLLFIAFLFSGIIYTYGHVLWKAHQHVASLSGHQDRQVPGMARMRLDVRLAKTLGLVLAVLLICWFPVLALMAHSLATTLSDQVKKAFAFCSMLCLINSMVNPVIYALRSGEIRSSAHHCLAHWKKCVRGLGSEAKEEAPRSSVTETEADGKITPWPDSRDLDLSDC

[6] = biological target: T3, Cannabinoid receptor 2; assay: SAR analysis of agonists of the Cannabinoid Receptor 2 using an Image-Based Assay - Set 3. [Related pubchem assays (depositor defined):AID2013, AID2026]; assay type: functional
[7] = biological target: T2, G-protein coupled receptor 35; assay: SAR analysis of Agonists of the GPR35 Receptor using an Image-Based Assay - Set 4. [Related pubchem assays (depositor defined):AID2013, AID2026]; assay type: functional
[8] = biological target: T4, Kappa-type opioid receptor (Homo sapiens, UniProt P41145); assay: SAR analysis of small molecule antagonists of the kappa opioid receptor via a luminescent beta-arrestin assay - Set 4. [Related pubchem assays (depositor defined):AID1777, AID1778, AID1785, AID1786, AID1966, AID2133, AID2136, AID2285]; assay type: functional
T4 sequence (P41145 whole entry): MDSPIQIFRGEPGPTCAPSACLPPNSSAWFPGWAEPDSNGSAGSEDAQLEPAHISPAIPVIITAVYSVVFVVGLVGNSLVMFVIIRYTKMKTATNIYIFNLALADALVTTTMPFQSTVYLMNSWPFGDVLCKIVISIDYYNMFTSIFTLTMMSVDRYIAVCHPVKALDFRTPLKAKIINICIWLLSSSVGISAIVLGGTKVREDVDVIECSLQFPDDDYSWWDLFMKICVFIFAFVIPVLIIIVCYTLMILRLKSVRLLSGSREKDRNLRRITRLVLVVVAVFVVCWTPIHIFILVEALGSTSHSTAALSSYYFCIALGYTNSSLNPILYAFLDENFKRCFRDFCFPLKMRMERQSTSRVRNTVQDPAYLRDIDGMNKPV

[9] = biological target: T4, Kappa-type opioid receptor; assay: SAR analysis of small molecule antagonists of the kappa opioid receptor via a luminescent beta-arrestin assay - Set 5. [Related pubchem assays (depositor defined):AID1778, AID1785]; assay type: functional
[10] = Counterscreen for IDE inhibitors: Luminescence-based cell-based high throughput dose response assay to identify compounds that are cytotoxic to HEK cells. [Related pubchem assays: 434962 (Primary screen (IDE inhibitors in singlicate)), 449730 (Counterscreen (Cytotoxicity in triplicate)), 435028 (Confirmation (IDE inhibitors in triplicate)) …; assay type: functional; details: HEK293
[11] = biological target: Mucolipin-3 (Homo sapiens, UniProt Q8TDD5); assay: Fluorescence counterscreen assay for […] agonists: dose response cell-based high-throughput screening assay to identify agonists of the transient receptor potential channel ML3 (TRPML3). [Related pubchem assays: 1424, 1448 ]; assay type: functional
Sequence of Mucolipin-3 (Q8TDD5 whole entry): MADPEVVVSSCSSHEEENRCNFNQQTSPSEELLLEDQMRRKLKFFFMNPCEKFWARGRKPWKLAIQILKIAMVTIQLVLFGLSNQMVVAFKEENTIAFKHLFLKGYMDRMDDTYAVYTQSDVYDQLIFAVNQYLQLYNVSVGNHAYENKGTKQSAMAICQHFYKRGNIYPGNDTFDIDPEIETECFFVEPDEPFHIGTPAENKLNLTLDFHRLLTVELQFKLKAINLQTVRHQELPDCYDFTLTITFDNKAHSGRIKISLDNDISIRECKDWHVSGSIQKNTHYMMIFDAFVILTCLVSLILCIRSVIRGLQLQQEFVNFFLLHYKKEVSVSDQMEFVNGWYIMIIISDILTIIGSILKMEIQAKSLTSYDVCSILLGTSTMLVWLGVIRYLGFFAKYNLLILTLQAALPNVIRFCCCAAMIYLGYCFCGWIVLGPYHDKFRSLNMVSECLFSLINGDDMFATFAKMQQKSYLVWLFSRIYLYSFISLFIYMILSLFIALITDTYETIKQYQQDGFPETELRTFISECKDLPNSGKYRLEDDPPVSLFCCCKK

[12] = biological target: Dual specificity tyrosine-phosphorylation-regulated kinase 1A (Rattus norvegicus, UniProt Q63470); assay type: biochemical, Homo sapiens
[13] = biological target: Ion channel NompC (Danio rerio, UniProt Q7T1G6); assay: Dose response cell-based high-throughput screening assay for agonists of the transient receptor potential channel N1 (TRPN1). [Related pubchem assays (depositor defined):AID1424, AID1448]; assay type: functional
Sequence of Ion channel NompC (Q7T1G6 whole entry): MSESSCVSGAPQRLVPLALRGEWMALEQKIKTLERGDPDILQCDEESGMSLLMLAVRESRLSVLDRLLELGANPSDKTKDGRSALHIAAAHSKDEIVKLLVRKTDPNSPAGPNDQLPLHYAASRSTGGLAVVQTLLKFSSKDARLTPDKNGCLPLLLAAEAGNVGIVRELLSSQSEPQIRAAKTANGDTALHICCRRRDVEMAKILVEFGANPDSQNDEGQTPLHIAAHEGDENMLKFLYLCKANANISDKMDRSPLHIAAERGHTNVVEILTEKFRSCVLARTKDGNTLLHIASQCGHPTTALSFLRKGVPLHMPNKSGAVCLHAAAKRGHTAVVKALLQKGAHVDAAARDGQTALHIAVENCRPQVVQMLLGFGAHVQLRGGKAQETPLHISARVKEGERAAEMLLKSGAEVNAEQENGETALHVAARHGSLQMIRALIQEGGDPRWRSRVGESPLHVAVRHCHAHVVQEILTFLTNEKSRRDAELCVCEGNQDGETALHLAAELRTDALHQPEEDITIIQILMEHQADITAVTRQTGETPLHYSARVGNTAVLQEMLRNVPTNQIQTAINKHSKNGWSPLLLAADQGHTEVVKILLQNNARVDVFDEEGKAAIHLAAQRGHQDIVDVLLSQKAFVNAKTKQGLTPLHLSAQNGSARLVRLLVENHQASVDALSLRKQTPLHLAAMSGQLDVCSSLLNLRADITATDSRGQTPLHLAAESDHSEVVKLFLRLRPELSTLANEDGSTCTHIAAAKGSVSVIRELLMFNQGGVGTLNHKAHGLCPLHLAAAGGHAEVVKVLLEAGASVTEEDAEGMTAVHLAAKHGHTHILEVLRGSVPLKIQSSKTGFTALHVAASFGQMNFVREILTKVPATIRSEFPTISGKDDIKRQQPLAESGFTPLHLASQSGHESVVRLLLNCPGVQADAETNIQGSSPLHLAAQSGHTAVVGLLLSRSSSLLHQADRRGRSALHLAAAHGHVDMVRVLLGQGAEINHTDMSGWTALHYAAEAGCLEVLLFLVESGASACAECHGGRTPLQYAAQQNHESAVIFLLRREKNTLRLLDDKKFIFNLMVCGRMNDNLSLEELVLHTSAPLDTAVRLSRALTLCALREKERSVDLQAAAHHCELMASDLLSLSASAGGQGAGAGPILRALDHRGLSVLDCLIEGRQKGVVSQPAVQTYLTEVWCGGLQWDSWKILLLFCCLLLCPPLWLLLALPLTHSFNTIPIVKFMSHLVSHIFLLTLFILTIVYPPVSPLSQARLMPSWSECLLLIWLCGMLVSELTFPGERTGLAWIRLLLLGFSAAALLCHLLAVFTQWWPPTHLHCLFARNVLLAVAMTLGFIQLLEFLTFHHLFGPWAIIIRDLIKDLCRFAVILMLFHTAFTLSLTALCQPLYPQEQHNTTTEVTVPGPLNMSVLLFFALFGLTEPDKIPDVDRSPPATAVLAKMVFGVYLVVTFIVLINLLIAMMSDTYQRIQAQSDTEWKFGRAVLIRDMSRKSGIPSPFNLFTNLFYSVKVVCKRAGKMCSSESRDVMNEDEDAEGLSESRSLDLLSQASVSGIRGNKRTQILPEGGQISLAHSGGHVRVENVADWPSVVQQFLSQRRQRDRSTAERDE

[14] = biological target: T5, Aminopeptidase N (Plasmodium falciparum FcB1/Columbia, UniProt O96935); assay: malaria alanyl aminopeptidase activity blockers – biochemical, fluorogenic H-Leu-NHMec substrate, 1536-well (AID 1445); design: species or system Plasmodium falciparum 3D7, 3D7
T5 sequence (O96935 whole entry): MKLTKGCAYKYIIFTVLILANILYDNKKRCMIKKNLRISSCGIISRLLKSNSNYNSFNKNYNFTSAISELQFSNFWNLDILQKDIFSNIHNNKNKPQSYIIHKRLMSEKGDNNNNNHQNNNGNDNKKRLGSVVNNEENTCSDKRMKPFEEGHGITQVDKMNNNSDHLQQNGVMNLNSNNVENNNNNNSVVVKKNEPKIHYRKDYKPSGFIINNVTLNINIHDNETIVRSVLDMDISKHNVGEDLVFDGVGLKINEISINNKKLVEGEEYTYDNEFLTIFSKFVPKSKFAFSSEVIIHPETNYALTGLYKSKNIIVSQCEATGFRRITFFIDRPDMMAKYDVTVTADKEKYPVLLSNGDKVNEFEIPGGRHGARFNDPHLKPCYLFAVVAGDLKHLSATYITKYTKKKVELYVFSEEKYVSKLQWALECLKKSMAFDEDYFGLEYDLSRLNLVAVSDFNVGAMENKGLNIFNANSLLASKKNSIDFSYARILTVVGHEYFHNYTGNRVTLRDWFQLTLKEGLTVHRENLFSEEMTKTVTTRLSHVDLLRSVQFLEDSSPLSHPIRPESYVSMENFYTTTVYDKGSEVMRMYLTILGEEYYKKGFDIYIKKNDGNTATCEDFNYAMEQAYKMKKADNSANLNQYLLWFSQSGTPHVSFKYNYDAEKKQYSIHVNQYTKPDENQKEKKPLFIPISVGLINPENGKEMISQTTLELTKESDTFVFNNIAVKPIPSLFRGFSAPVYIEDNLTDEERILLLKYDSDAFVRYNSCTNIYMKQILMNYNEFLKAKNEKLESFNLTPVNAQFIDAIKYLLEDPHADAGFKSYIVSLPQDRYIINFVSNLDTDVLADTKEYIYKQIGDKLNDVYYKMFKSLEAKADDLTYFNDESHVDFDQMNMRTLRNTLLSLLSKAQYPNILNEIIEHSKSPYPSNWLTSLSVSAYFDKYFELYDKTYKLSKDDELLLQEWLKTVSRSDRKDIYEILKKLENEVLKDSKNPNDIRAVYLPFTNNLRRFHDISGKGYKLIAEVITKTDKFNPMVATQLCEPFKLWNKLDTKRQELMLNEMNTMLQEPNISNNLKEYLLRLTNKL

[15] = biological target: T6, Insulin-degrading enzyme (Homo sapiens, UniProt P14735); assay: Dose Response: Fluorescence polarization-based cell-based high throughput dose response assay for inhibitors of insulin-degrading enzyme (IDE). [Related pubchem assays: 434962 (Primary screen (IDE inhibitors in singlicate)), 449730 (Counterscreen (Cytotoxicity in triplicate)), 435028 (Confirmation (IDE inhibitors in triplicate)), 434984 (Summary …; assay type: functional
T6 sequence (P14735 whole entry): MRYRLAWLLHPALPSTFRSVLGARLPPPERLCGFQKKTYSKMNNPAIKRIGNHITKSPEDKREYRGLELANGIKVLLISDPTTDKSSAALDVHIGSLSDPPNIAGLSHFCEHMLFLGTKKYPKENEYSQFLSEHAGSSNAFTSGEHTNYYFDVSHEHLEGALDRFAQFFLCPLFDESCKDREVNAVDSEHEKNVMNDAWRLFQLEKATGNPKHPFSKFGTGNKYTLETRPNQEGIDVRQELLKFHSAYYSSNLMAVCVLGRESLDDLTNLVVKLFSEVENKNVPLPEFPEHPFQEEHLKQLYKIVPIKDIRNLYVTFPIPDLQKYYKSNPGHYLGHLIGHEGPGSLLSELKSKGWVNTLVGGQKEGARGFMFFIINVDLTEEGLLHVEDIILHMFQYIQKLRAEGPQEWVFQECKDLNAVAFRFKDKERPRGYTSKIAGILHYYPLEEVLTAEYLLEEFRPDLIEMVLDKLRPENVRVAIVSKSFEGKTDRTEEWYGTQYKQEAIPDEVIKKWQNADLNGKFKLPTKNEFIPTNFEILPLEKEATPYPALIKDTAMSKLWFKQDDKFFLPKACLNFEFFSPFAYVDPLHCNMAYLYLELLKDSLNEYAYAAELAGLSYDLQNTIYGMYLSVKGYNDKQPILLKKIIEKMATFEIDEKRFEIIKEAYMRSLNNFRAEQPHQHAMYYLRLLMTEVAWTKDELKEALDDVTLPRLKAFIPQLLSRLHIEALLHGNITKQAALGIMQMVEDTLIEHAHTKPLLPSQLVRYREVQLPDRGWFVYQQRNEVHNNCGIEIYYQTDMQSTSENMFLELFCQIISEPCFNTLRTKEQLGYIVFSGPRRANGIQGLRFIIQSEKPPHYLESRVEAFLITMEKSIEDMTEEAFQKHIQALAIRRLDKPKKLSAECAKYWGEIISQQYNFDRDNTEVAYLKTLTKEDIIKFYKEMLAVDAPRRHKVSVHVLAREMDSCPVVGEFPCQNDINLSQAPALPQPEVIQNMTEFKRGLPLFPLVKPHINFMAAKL

[16] = biological target: Intestinal-type alkaline phosphatase (Homo sapiens, UniProt P09923); assay: human intestinal alkaline phosphatase activators, dose response, biochemical, luminescence, uHTS hits (AID 463120); assay type: functional
Sequence of Intestinal-type alkaline phosphatase (P09923 whole entry): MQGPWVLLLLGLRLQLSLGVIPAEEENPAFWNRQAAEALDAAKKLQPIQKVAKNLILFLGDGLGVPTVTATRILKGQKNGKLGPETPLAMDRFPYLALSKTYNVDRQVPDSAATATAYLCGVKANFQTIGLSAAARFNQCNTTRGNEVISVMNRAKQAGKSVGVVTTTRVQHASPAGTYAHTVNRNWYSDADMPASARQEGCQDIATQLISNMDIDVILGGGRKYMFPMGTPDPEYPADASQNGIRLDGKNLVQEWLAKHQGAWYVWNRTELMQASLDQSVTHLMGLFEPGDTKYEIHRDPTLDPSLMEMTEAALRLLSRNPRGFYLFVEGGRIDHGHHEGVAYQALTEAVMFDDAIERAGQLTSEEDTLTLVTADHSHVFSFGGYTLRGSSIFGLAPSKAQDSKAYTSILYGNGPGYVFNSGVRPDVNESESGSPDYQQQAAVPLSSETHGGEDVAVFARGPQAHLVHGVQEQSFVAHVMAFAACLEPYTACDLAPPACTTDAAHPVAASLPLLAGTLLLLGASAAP

T1 sequence (P21554 whole entry): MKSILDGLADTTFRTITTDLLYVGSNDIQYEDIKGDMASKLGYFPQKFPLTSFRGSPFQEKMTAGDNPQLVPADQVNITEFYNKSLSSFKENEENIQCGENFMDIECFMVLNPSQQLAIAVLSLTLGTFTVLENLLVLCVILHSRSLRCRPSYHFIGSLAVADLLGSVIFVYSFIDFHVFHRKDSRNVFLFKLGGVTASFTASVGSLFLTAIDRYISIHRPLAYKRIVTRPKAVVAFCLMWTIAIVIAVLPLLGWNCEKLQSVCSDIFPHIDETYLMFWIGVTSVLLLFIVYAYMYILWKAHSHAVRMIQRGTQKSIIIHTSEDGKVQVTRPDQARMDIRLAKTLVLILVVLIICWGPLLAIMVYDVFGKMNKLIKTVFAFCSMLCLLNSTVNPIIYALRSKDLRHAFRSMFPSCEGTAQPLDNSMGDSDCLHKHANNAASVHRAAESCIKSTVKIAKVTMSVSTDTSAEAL

Row | Structure (SMILES) | IC50 [1] | IC50 [2] | IC50 [3] | EC50 [4] | IC50 [5] | EC50 [6] | EC50 [7] | also measured
1 | Cc1nc(N2CCN(C(=O)c3ccc4c(c3)nc(C)n4C)CC2)c2c3c(sc2n1)CC(C)CC3 (stereo not drawn) | 19.6 µM (inactive) | > 32 µM (inactive) | > 32 µM (inactive) | > 32 µM (inactive) | > 32 µM (inactive) | 26.8 µM (inactive) | > 32 µM (inactive) | –
2 | O=C(Cn1c(=O)c2cccn2c2cc(Br)cnc21)NCCCN1CCN(c2ccccc2)CC1 | – | – | – | – | – | – | – | IC50 [8]: > 20 µM (inactive); IC50 [9]: > 20 µM (inactive)
3 | COc1ccc(C2(C(=O)N3CCC(n4nc(-c5ccccc5)oc4=O)CC3)CC2)cc1 | 7.11 µM (active) | > 32 µM (inactive) | 9.55 µM (active) | > 32 µM (inactive) | > 32 µM (inactive) | > 32 µM (inactive) | > 32 µM (inactive) | –
4 | O=C(O)c1cccc(-c2ccc(/C=N/Nc3ccc([N+](=O)[O-])cc3)o2)c1 | – | – | – | – | – | – | – | IC50 [10]: > 55.6 µM (not active); EC50 [11]: > 29.9 µM (not active); AC50 [12]: 6.38 µM (active); EC50 [13]: 12 µM (inactive); IC50 [14]: 27.3 µM (active); IC50 [15]: > 55.9 µM (not active)
5 | O=C(N/N=C/c1cccc([N+](=O)[O-])c1)c1nc(O)c2ccccc2n1 | – | – | – | – | – | – | – | EC50 [16]: 8.34 µM (active)
